Experimental data taken from patent US20090318399A1, “PHARMACEUTICAL COMPOSITION AND EXTRACT OF PORIA FOR TREATING A DISEASE INDUCED FROM IMMUNE DISORDER” (Sinphar Pharmaceutical Co., Ltd., priority 2008, published 2009).

Test system: immune cells in BALF of OVA-sensitized mice
Assay: Percentage of subpopulation of immune cells in BALF
Assay type: in vivo, BALB/c mice
Details: Pred group: 0.1 mg Prednisolone per day for 5 days; % of total BALF cells; mean±SD
Source text: In this example the mice were induced to become allergic by using ovalbumin (OVA) as an allergen, and the mice were confirmed suffering the induced asthma from the appearance of OVE-specific IgE antibody in the mice. Mice in different groups were fed with a Poria extract or pure lanostane compound during the experimental period, and each mouse was subjected to an airway hyperresponsiveness test after one-month feeding, from which an important index reflecting the severe degree of the asthma of the mouse was determined. In this example different immune cells in bronchoalveolar lavage fluid (BALF) of the mice were also observed as to whether they particularly eosinophils and neutrophils were affected. Further, a chemoattractant factor, Eotaxin, was an important observation factor in this example for observing whether the secretion of cytokines changed dramatically.
(1) Experimental animal: Inbred BALB/c female mice were maintained by standard laboratory chow ad libitum. Room temperature was maintained at 19-24° C. and relative humidity at 50-70%. […]
As all groups of mice had finished of AHR analysis, they were sacrificed on next day. […] The total cell numbers were determined with 0.5 ml CM-10, wherein the density of cells was adjusted to 3×10^5 cells/ml. […] Two hundreds of leukocytes were counted on each slide, which includes four different cells, eosinophil, neutrophil, lymphocyte and monocyte. […]

## C[C@]12C=CC(=O)C=C1CC[C@@H]1[C@@H]2[C@@H](O)C[C@@]2(C)[C@H]1CC[C@]2(O)C(=O)CO [Pred, Prednisolone]
  Monocyte % in BALF: 13.3 ± 7.8%
  Neutrophil % in BALF: 0.8 ± 0.8%
